In PubChem BioAssay (NCI):
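The concentration for 50% growth inhibition is given as GI50. TGI: concentration producing complete growth inhibition.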

Legend:
Test in all cases: NCI anticancer screen, dose series, 384-well format
HOP-62 NSCLC = tested on: HOP-62 NSCLC
OVCAR-4 ovarian = tested on: OVCAR-4 ovarian
CCRF-CEM leukemia = tested on: CCRF-CEM leukemia
SN12C renal = tested on: SN12C renal
PC-3 prostate = tested on: PC-3 prostate
MDA-MB-435 melanoma = tested on: MDA-MB-435 melanoma
CAKI-1 renal = tested on: CAKI-1 renal
SK-MEL-28 melanoma = tested on: SK-MEL-28 melanoma
OVCAR-8 ovarian = tested on: OVCAR-8 ovarian
786-0 renal = tested on: 786-0 renal
TK-10 renal = tested on: TK-10 renal
MALME-3M melanoma = tested on: MALME-3M melanoma
BT-549 breast = tested on: BT-549 breast
MCF7 breast = tested on: MCF7 breast
SF-295 CNS = tested on: SF-295 CNS
SR leukemia = tested on: SR leukemia
SNB-75 CNS = tested on: SNB-75 CNS
RPMI-8226 leukemia = tested on: RPMI-8226 leukemia
SK-OV-3 ovarian = tested on: SK-OV-3 ovarian
HCT-116 colon = tested on: HCT-116 colon
HT29 colon = tested on: HT29 colon
EKVX NSCLC = tested on: EKVX NSCLC
HL-60(TB) leukemia = tested on: HL-60(TB) leukemia
UO-31 renal = tested on: UO-31 renal
OVCAR-3 ovarian = tested on: OVCAR-3 ovarian
HCC-2998 colon = tested on: HCC-2998 colon
LOX IMVI melanoma = tested on: LOX IMVI melanoma
M14 melanoma = tested on: M14 melanoma
NCI-H226 lung = tested on: NCI-H226 lung
NCI-H23 lung = tested on: NCI-H23 lung
COLO 205 colon = tested on: COLO 205 colon
SK-MEL-5 melanoma = tested on: SK-MEL-5 melanoma
U251 glioblastoma = tested on: U251 glioblastoma
MDA-MB-468 breast = tested on: MDA-MB-468 breast
DU-145 prostate = tested on: DU-145 prostate
UACC-62 melanoma = tested on: UACC-62 melanoma
SF-268 CNS = tested on: SF-268 CNS
HS 578T breast = tested on: HS 578T breast
IGROV1 ovarian = tested on: IGROV1 ovarian
SW-620 colon = tested on: SW-620 colon
MDA-MB-231 breast = tested on: MDA-MB-231 breast
SF-539 CNS = tested on: SF-539 CNS
UACC-257 melanoma = tested on: UACC-257 melanoma
HOP-92 NSCLC = tested on: HOP-92 NSCLC
NCI-H460 NSCLC = tested on: NCI-H460 NSCLC
NCI/ADR-RES ovarian = tested on: NCI/ADR-RES ovarian
NCI-H322M lung = tested on: NCI-H322M lung
MOLT-4 leukemia = tested on: MOLT-4 leukemia
A549 NSCLC = tested on: A549 NSCLC
T-47D breast = tested on: T-47D breast
RXF 393 renal = tested on: RXF 393 renal
K-562 leukemia = tested on: K-562 leukemia
HCT-15 colon = tested on: HCT-15 colon
NCI-H522 lung = tested on: NCI-H522 lung
ACHN renal = tested on: ACHN renal
SNB-19 CNS = tested on: SNB-19 CNS
KM12 colon = tested on: KM12 colon
A498 renal = tested on: A498 renal

With `CCCN(CCC)C(=O)C1=Cc2ccc(-c3ccc(C(=O)N4CCCC4)cc3)cc2N=C(N)C1` the GI50 (HOP-62 NSCLC) was 3.07 µM, the TGI (HOP-62 NSCLC) was 11.7 µM and the GI50 (OVCAR-4 ovarian) was 12.4 µM. For the same compound, the TGI (OVCAR-4 ovarian) was 26 µM, the GI50 (CCRF-CEM leukemia) was 3.53 µM and the TGI (CCRF-CEM leukemia) was 11.2 µM. The GI50 (SN12C renal) was 13.4 µM, the TGI (SN12C renal) was 29.4 µM and the GI50 (PC-3 prostate) was 3.66 µM. The TGI (PC-3 prostate) was 13.9 µM, the GI50 (MDA-MB-435 melanoma) was 2.2 µM and the TGI (MDA-MB-435 melanoma) was 5.73 µM. The GI50 (CAKI-1 renal) was 5.86 µM, the TGI (CAKI-1 renal) was 19.2 µM and the GI50 (SK-MEL-28 melanoma) was 11 µM. It also gave a TGI (SK-MEL-28 melanoma) of 23 µM, a GI50 (OVCAR-8 ovarian) of 8.34 µM and a TGI (OVCAR-8 ovarian) of 21.4 µM. For the same compound, the GI50 ([…]-0 renal) was 4.81 µM, the TGI (786-0 renal) was 16.6 µM and the GI50 (TK-10 renal) was 10.3 µM. The TGI (TK-10 renal) was 23.3 µM, the GI50 (MALME-3M melanoma) was 3.81 µM and the TGI (MALME-3M melanoma) was 14.6 µM. It also gave a GI50 (BT-549 breast) of 4.19 µM, a TGI (BT-549 breast) of 14.8 µM and a GI50 (MCF7 breast) of 3.11 µM. The TGI (MCF7 breast) was 12.1 µM, the GI50 (SF-295 CNS) was 3.42 µM and the TGI (SF-295 CNS) was 12.9 µM. It also gave a GI50 (SR leukemia) of 1.31 µM, a TGI (SR leukemia) of 3.21 µM and a GI50 (SNB-75 CNS) of 3.48 µM. It also gave a TGI (SNB-75 CNS) of 12.5 µM, a GI50 (RPMI-8226 leukemia) of 1.78 µM and a TGI (RPMI-8226 leukemia) of 5.78 µM. It also gave a GI50 (SK-OV-3 ovarian) of 5.22 µM, a TGI (SK-OV-3 ovarian) of 17.2 µM and a GI50 (HCT-116 colon) of 3.47 µM. For the same compound, the TGI (HCT-116 colon) was 13.1 µM, the GI50 (HT29 colon) was 3.41 µM and the TGI (HT29 colon) was 11.9 µM. For the same compound, the GI50 (EKVX NSCLC) was 3.93 µM, the TGI (EKVX NSCLC) was 16.5 µM and the GI50 (HL-60(TB) leukemia) was 1.52 µM. For the same compound, the TGI (HL-60(TB) leukemia) was 2.86 µM, the GI50 (UO-31 renal) was 8.31 µM and the TGI (UO-31 renal) was 21.1 µM. It also gave a GI50 (OVCAR-3 ovarian) of 2.78 µM, a TGI (OVCAR-3 ovarian) of 6.51 µM and a GI50 (HCC-2998 colon) of 5.42 µM. The TGI (HCC-2998 colon) was 18.3 µM, the GI50 (LOX IMVI melanoma) was 5.71 µM and the TGI (LOX IMVI melanoma) was 18.2 µM. It also gave a GI50 (M14 melanoma) of 3.76 µM, a TGI (M14 melanoma) of 13 µM and a GI50 (NCI-H226 lung) of 10.7 µM. For the same compound, the TGI (NCI-H226 lung) was 23.8 µM, the GI50 (NCI-H23 lung) was 3.67 µM and the TGI (NCI-H23 lung) was 14.7 µM. It also gave a GI50 (COLO 205 colon) of 4.89 µM, a TGI (COLO 205 colon) of 16.9 µM and a GI50 (SK-MEL-5 melanoma) of 1.6 µM. The TGI (SK-MEL-5 melanoma) was 3.65 µM, the GI50 (U251 glioblastoma) was 5.15 µM and the TGI (U251 glioblastoma) was 17.4 µM. The GI50 (MDA-MB-468 breast) was 1.63 µM, the TGI (MDA-MB-468 breast) was 5.02 µM and the GI50 (DU-145 prostate) was 9.15 µM. For the same compound, the TGI (DU-145 prostate) was 22.2 µM, the GI50 (UACC-62 melanoma) was 4.59 µM and the TGI (UACC-62 melanoma) was 16.4 µM. For the same compound, the GI50 (SF-268 CNS) was 5.11 µM, the TGI (SF-268 CNS) was 17.6 µM and the GI50 (HS 578T breast) was 3.34 µM. The TGI (HS 578T breast) was 12 µM, the GI50 (IGROV1 ovarian) was 10 µM and the TGI (IGROV1 ovarian) was 23.4 µM. For the same compound, the GI50 (SW-620 colon) was 4.06 µM, the TGI (SW-620 colon) was 14.6 µM and the GI50 (MDA-MB-231 breast) was 5.09 µM. For the same compound, the TGI (MDA-MB-231 breast) was 17.5 µM, the GI50 (SF-539 CNS) was 3.99 µM and the TGI (SF-539 CNS) was 16.6 µM. It also gave a GI50 (UACC-257 melanoma) of 5.77 µM, a TGI (UACC-257 melanoma) of 18.7 µM and a GI50 (HOP-92 NSCLC) of 4 µM. It also gave a TGI (HOP-92 NSCLC) of 15.7 µM, a GI50 (NCI-H460 NSCLC) of 2.23 µM and a TGI (NCI-H460 NSCLC) of 5.31 µM. For the same compound, the GI50 (NCI/ADR-RES ovarian) was 12.8 µM, the TGI (NCI/ADR-RES ovarian) was 27.9 µM and the GI50 (NCI-H322M lung) was 7.93 µM. For the same compound, the TGI (NCI-H322M lung) was 20.6 µM, the GI50 (MOLT-4 leukemia) was 2.51 µM and the TGI (MOLT-4 leukemia) was 8.74 µM. It also gave a GI50 (A549 NSCLC) of 6.2 µM, a TGI (A549 NSCLC) of 19.9 µM and a GI50 (T-47D breast) of 3.02 µM. It also gave a TGI (T-47D breast) of 14.4 µM, a GI50 (RXF 393 renal) of 2.52 µM and a TGI (RXF 393 renal) of 10.4 µM. The GI50 (K-562 leukemia) was 2.52 µM, the TGI (K-562 leukemia) was 10.3 µM and the GI50 (HCT-15 colon) was 3.48 µM. It also gave a TGI (HCT-15 colon) of 14.1 µM, a GI50 (NCI-H522 lung) of 2.69 µM and a TGI (NCI-H522 lung) of 10.3 µM. For the same compound, the GI50 (ACHN renal) was 10.8 µM, the TGI (ACHN renal) was 23.5 µM and the GI50 (SNB-19 CNS) was 4.95 µM. It also gave a TGI (SNB-19 CNS) of 17.4 µM, a GI50 (KM12 colon) of 2.81 µM and a TGI (KM12 colon) of 11.2 µM. For the same compound, the GI50 (A498 renal) was 3.93 µM and the TGI (A498 renal) was 15.3 µM.
